Consider four compounds from patent US11090351B2, “Whitening agent” (KAO CORPORATION, priority 2016, dated 2021).

Data set [1] concerns B16 melanoma cells. The data set can be described thus: Inhibition of melanogenesis in skin melanocytes (relative amount of extracellular melanin). Format: cell-based. The following applies: Mus musculus. As for the experimental part: (§1) B16 melanoma cells (DS pharma Biomedical) were used as skin melanocytes. The B16 melanoma cells were cultured in a CO2 incubator (37° C., 5% CO2) in 10 cm dishes containing the DMEM medium supplemented with 10% FBS. A cell suspension at 5.0×10^4 cells/mL was prepared from the cultured cells. 998 μL aliquots of the cell suspension were dispensed into 24 well plates and cultured in a CO2 incubator (37° C., 5% CO2) overnight. Subsequently, 2 μL of the DMSO solution of the methanol extract from Syzygium polyanthum prepared in Production Example 3 was added to each well (the final concentrations of the extract: 25 and 50 μg/mL) and the mixtures were further cultured for 72 hours. Arbutin (730 μM) was used instead of the extract as a positive control. DMSO was used as control.
The supernatants of the cultures prepared in (1) were collected, 200 μL each was transferred into a 96 well plate, and then the absorbance was measured at 510 nm. The relative amount of extracellular melanin was calculated by determining the relative value to the control.
(§2) The assay for tyrosinase activity was conducted in a procedure similar to that in Example 1 (3) using Compounds 1-3 as samples. In the tyrosinase activity assay, the final concentrations of each compound were adjusted to 100, 50, 25, and 12.5 mM and IC50 was calculated. Moreover, tests for melanogenesis inhibiting activity and for cytotoxicity were conducted in procedures similar to those in Example 2. The relative amount of extracellular melanin and the relative cell survival rate of skin melanocytes to which Compounds 1-3 were added were measured. The result of the tyrosinase activity assay is illustrated in Table 5 and the results of the measurements of the relative amount of extracellular melanin and the relative cell survival rate are illustrated in Table 6.

Data set [2] deals with B16 melanoma cells. Briefly: Cytotoxicity test (MTT assay), relative cell survival rate. Format: cell-based. The method, then:
as §1
The MTT assay solution was prepared by dissolving 50 mg of Thiazolyl Blue Tetrazolium Bromide (SIGMA) in 10 mL of PBS (−). 50 μL of the MTT assay solution was added to each culture prepared in (1) and reacted for 4 hours. Then, 1 mL of isopropanol for MTT was added to each culture and the plate was covered with aluminum foil and allowed for reaction at room temperature for 2 hours for the reaction. After the reaction, the total amount was collected and centrifuged (1.45×10^3 rpm, 1 min), then 150 μL each of the supernatants was transferred into a 96 well plate, and the absorbance was measured at 590 nm. The relative cell survival rate (cytotoxicity) was calculated by determining the relative value to the control.
as §2

In another data set the target is mushroom tyrosinase. The data set can be described thus: Tyrosinase activity assay (methanol extract, fractions, Compounds 1-3). Format: biochemical. The note with it: Table 5. As for the experimental part:
1 mg of methanol extract from Syzygium polyanthum prepared in Production Example 3 was dissolved in 50 μL of DMSO and 550 μL of a buffer (50 mM solution of disodium hydrogen phosphate, pH 6.5). This extract solution was transferred in a 96 well plate so that the final concentrations of extract became 500, 250, 125, 62.5, 31.25, 15.625, 7.8125 and 0 μg/mL and diluted to 60 μL with the buffer. 30 μL of the tyrosinase solution (a buffered solution of 1 mg/16 mL mushroom tyrosinase (SIGMA), pH 6.5) and 110 μL of the substrate solution (2 mM L-tyrosine or 12 mM L-DOPA) were added to each well of the 96 well plate.
Each fraction was dissolved in 600 μL of DMSO and added to 96-well plates to the final concentrations of 50, 25 and 12.5 μg/mL.
In the tyrosinase activity assay, the final concentrations of each compound were adjusted to 100, 50, 25, and 12.5 mM and IC50 was calculated. […] The result of the tyrosinase activity assay is illustrated in Table 5 and the results of the measurements of the relative amount of extracellular melanin and the relative cell survival rate are illustrated in Table 6.

The mark [3] stands for this setting: substrate L-DOPA, read-out: IC50 (μM) DOPA.
Where [4] appears, read: substrate L-tyrosine, read-out: IC50 (μM) Tyrosine.

Like-named read-outs stand apart in the source and are kept apart here.

Consider `OC[C@H]1O[C@@H](Oc2ccc(O)cc2)[C@H](O)[C@@H](O)[C@@H]1O` [Arbutin, reference compound], for which the activity at 730 µM in the data set with B16 melanoma cells [1] (72 hours, relative to DMSO control, Table 3) amounted to 21.3%; in the data set on B16 melanoma cells [1] (Table 6), 32.7%. Besides, the “Cell Viability (%)” value turned out to be 99% with B16 melanoma cells [2] (730 μM, 72 hours, MTT, relative to control, Table 3) and 107.6% in the data set with B16 melanoma cells [2] (730 μM, Table 6).

On to `CCCCCC(=O)c1cc(O)c(C)c(O)c1O` [Compound 1, 1-(2,3,5-Trihydroxy-4-methylphenyl)hexane-1-one], for which the figures for the IC50 on mushroom tyrosinase (setting [3]) and at mushroom tyrosinase (setting [4]) were 291 µM and 125 µM, respectively. In addition, the activity at 100 µM in the data set with B16 melanoma cells [1] was 78.2%. For the same compound, in the data set on B16 melanoma cells [1] (200 μM), the activity at 200 µM came to 13.6%. Further, the “Cell Viability (%)” value in the data set on B16 melanoma cells [2] (100 μM) was found to be 73.3%; in the data set on B16 melanoma cells [2] (200 μM) it was 64.9%.

On to `CCCCCCCC(=O)c1cc(O)c(C)c(O)c1O` [Compound 2, 1-(2,3,5-Trihydroxy-4-methylphenyl)octane-1-one], for which the IC50 worked out at 616 µM at mushroom tyrosinase (setting [3]) and 481 µM at mushroom tyrosinase (setting [4]). Moreover, in the data set with B16 melanoma cells [1], the activity at 25 µM is 99%. Besides, in the data set with B16 melanoma cells [1], the activity at 50 µM stood at 13.5%. Moreover, the “Cell Viability (%)” value with B16 melanoma cells [2] (25 μM) is 95.0%; in the data set on B16 melanoma cells [2] (50 μM), 87.4%.

On to `CCCCC/C=C/CCC(=O)c1cc(O)c(C)c(O)c1O` [Compound 3, (4E)-1-(2,3,5-Trihydroxy-4-methylphenyl)dec-4-en-1-one], for which the IC50 on mushroom tyrosinase (setting [3]) stood at 489 µM; at mushroom tyrosinase (setting [4]), 84 µM. In addition, the activity at 25 µM in the data set with B16 melanoma cells [1] is 107%. Moreover, the activity at 50 µM in the data set on B16 melanoma cells [1] turned out to be 27.2%. In the data set on B16 melanoma cells [1] (75 μM), the activity at 75 µM was found to be 9.7%. In addition, in the data set with B16 melanoma cells [1], the activity at 100 µM amounted to 11.4%. In addition, the “Cell Viability (%)” value in the data set with B16 melanoma cells [2] (25 μM) is given as 94.3%; in the data set with B16 melanoma cells [2] (50 μM), 99.8%; with B16 melanoma cells [2] (75 μM), 92.5%; in the data set with B16 melanoma cells [2] (100 μM) it was 72.9%.

By IC50 is commonly meant the point on the concentration scale where inhibition reaches its midpoint.
